Assay results taken from US5328909A, “Cyclopropenone derivatives” (Mitsubishi Kasei Corporation, priority 1991, dated 1994).
Where two headings read alike, the source gives them in different places.

Key:
[1] = molecular target: T1, m-calpain (Rattus norvegicus, UniProt Q07009); assay: Thiol protease inhibitory activity against m-calpain purified from rat brain; assay type: biochemical
T1 construct: m-calpain was purified from rat brain; from tissue; host or cells: rat brain
T1 sequence (Q07009 20-700 limits assumed): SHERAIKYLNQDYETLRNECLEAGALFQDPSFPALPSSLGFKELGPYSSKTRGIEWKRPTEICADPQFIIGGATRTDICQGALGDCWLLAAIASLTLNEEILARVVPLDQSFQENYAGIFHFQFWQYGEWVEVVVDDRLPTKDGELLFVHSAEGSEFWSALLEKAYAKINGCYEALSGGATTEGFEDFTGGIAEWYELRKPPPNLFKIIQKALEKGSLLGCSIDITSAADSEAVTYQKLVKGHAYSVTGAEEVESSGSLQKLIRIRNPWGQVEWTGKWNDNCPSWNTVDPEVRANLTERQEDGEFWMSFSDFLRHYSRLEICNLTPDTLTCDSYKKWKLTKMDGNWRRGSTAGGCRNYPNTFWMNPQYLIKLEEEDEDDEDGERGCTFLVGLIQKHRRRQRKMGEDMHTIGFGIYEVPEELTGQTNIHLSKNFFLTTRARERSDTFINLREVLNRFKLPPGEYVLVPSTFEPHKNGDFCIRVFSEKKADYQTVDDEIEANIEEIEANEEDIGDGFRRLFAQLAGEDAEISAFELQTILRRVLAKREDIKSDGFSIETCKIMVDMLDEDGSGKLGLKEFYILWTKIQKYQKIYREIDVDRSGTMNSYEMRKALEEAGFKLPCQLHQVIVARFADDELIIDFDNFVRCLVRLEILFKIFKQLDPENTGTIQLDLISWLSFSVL
T1 sequence (Q64537 1-270 partner): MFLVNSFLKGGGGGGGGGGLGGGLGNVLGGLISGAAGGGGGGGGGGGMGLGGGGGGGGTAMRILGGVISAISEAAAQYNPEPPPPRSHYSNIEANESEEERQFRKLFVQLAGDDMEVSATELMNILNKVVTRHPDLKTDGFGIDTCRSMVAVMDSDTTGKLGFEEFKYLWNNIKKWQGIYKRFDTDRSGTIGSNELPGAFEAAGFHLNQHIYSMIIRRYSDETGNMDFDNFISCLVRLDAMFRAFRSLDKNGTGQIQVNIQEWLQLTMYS
Procedure, shortened: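 Papain and bovine cathepsin B assayed by a published method; cathepsin L purified from rat kidney and tested as for cathepsin B. m-Calpain purified from rat brain and assayed by a separate published method.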

[2] = molecular target: T2, cathepsin L (Rattus norvegicus, UniProt P07154); assay: Thiol protease inhibitory activity against cathepsin L purified from rat kidney; assay type: biochemical
T2 construct: Capthesin L was purified from rat kidney; from tissue; host or cells: rat kidney
T2 sequence (P07154 114-288 limits assumed): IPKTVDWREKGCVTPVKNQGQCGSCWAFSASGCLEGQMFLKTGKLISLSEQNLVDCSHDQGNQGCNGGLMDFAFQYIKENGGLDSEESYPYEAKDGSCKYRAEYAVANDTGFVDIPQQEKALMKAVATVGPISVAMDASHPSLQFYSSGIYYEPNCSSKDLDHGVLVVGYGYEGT
T2 sequence (P07154 291-334 limits assumed): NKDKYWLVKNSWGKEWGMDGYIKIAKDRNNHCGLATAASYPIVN
Method: (§1) Inhibitory activity against papain (P-3125, Sigma) and cathepsin B (C-6286, Sigma) was assayed according to the method described in a literature [Biochemical Journal, 201, 189 (1982)]. Capthesin L was purified from rat kidney according to the method in a literature [Journal of Biochemistry, 100, 35 (1986)], and the inhibitory activity against it was assayed in the same manner as described in the above literature for cathepsin B. Further, m-calpain was purified from rat brain according to a known method [Journal of Biological Chemistry, 254, p.3210 (1984)] and the inhibitory activity against it was assayed by a method described in a literature [Journal of Biological Chemistry, 259, 12489 (1984)]. The results are showing in Tables 3 and 4. It is evident from Tables 3 and 4 that the compounds in the present invention have a potent inhibitory activity against thiol proteases such as papain, cathepsin B, cathepsin L, m-calpain or the like.

[3] = molecular target: T3, cathepsin B (Bos taurus, UniProt P07688); assay: Thiol protease inhibitory activity against cathepsin B (C-6286, Sigma); assay type: biochemical
T3 construct: purchased Sigma C-6286
Method: as §1

[4] = molecular target: T4, papain (Carica papaya, UniProt P00784); assay: Thiol protease inhibitory activity against papain (P-3125, Sigma); assay type: biochemical
T4 sequence (P00784 134-345): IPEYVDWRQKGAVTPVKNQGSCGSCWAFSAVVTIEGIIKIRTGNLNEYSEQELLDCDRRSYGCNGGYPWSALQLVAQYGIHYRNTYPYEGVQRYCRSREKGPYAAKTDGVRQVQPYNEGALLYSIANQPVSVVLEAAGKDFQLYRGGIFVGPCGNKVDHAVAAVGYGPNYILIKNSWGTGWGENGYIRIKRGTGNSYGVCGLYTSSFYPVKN
Method: as §1

[5] = Acute oral toxicity, rats observed for 7 days; conditions: rat, in vivo, suspension in 0.5% CMC-Na aqueous solution, SD female and male rats, 7 days observation
Method: The LD50 value of the compound (I) prepared in Example 1 is: >2,000 mg/kg.

[6] = test system: microtubule-associated protein; conditions: after the brain ischemia; cited from earlier work
[7] = test system: experimental muscular dystrophy hamster; conditions: cited from earlier work
[8] = test system: aggregation of platelet caused by thrombin; conditions: cited from earlier work
[9] = test system: rat with enhanced bone destruction by administration of parathyroid hormone; conditions: cited from earlier work
[10] = test system: cataract animal models; conditions: cited from earlier work
[11] = test system: production of IgE; conditions: cited from earlier work
[12] = test system: cardiac infarction animal models; conditions: cited from earlier work
[13] = test system: brain trauma models of rat; conditions: cited from earlier work
[14] = Table 3, rat brain enzyme, read-out: IC50 (μM) m-calpain
[15] = Table 3, rat kidney enzyme, read-out: IC50 (μM) cathepsin L
[16] = Table 3, read-out: IC50 (μM) cathepsin B
[17] = Table 3, read-out: IC50 (μM) papain

| Structure (SMILES) | IC50 [1, 14] | IC50 [2, 15] | IC50 [3, 16] | IC50 [4, 17] | further results |
| --- | --- | --- | --- | --- | --- |
| CC(C)C[C@H](NC(=O)OCC1CCCCC1)C(=O)N[C@@H](C(C)C)[C@@H](O)c1c(-c2ccccc2)c1=O [1 (No. 77), 2-[(1S,2S)-2-{(s)-2-cyclohexylmethoxycarbonylamino-4-methylvalerylamino}-1-hydroxy-3-methylbuthyl]-3-phenylcyclopropenone] | 1.6 µM | 0.00086 µM | 0.71 µM | 0.054 µM | LD50 at 168 h [5]: > 2000 mg/kg |
| CC(C)C[C@H](NC(=O)OCC1CCCCC1)C(=O)N[C@@H](C(C)C)[C@H](O)c1c(-c2ccccc2)c1=O [2 (No. 77), 2-[(1R, 2S)-2-{(S)-2-cyclohexylmethoxycarbonylamino-4-methylvalerylamino}-1-hydroxy-3-methylbutyl]-3-phenylcyclopropenone] | 3.3 µM | 0.0012 µM | 0.044 µM | 22 µM |  |
| CC(C)C[C@H](NC(=O)OCC1CCCCC1)C(=O)N[C@@H](C(C)C)C(O)c1cc1=O (stereo partly drawn) [4 (No. 4), 2-[(2S)-2-((S)-2-cyclohexylmethoxycarbonylamino-4-methylvalerylamino)-1-hydroxy-3-methylbutyl]cyclopropenone] | 0.5 µM |  | 0.41 µM | 5.8 µM |  |
| CC(C)C[C@H](NC(=O)OCc1ccccc1)C(=O)N[C@@H](CC(C)C)C(O)c1cc1=O (stereo partly drawn) [5 (No. 10), 2-[(2S)-2-((S)-2-benzyloxycarbonylamino-4-methylvalerylamino)-1-hydroxy-4-methylpentyl]cyclopropenone] | 2.3 µM | 0.75 µM | 3 µM | > 100 µM |  |
| CCCC[C@H](NC(=O)[C@H](CC(C)C)NC(=O)OCC1CCCCC1)C(O)c1cc1=O (stereo partly drawn) [6 (No. 15), 2-[(2S)-2-((S)-2-cyclohexylmethoxycarbonylamino-4-methylvalerylamino)-1-hydroxyhexyl]cyclopropenone] | 0.81 µM | 0.54 µM | 0.16 µM | 0.076 µM |  |
| CCCC[C@H](NC(=O)[C@H](CC(C)C)NC(=O)OCc1ccccc1)C(O)c1cc1=O (stereo partly drawn) [7 (No. 16), 2-[(2S)-2-((S)-2-benzyloxycarbonylamino-4-methylvalerylamino)-1-hydroxyhexyl]cyclopropenone] | 2.4 µM | 0.24 µM | 0.32 µM | 0.14 µM |  |
| CC(C)C[C@H](NC(=O)OCc1ccccc1)C(=O)N[C@@H](C(C)C)[C@@H](O)c1c(-c2ccccc2)c1=O [25 (No. 83), 2-[(1S, 2S)-2-((S)-2-benzyloxycarbonylamino-4-methylvalerylamino)-1-hydroxy-3-methylbutyl]-3-phenylcyclopropenone] | 2.1 µM | 5.7 µM | 32 µM | 13 µM |  |
| CC(C)C[C@H](NC(=O)OCc1ccccc1)C(=O)N[C@@H](C(C)C)C(O)c1c(-c2ccccc2)c1=O (stereo partly drawn) [26 (No. 83), 2-[(2S)-2-((S)-2-benzyloxycarbonylamino-4-methylvalerylamino)-1-hydroxy-3-methylbutyl]-3-phenylcyclopropenone] | 1.6 µM | 5.8 µM | 43 µM | 4.2 µM |  |
| CCCC[C@H](NC(=O)[C@H](CC(C)C)NC(=O)OCC1CCCCC1)C(O)c1c(-c2ccccc2)c1=O (stereo partly drawn) [94 (No. 280), 2-[(2S)-2-((S)-2-cyclohexylmethoxycarbonylamino-4-methylvalerylamino)-1-hydroxyhexyl]-3-phenylcyclopropenone] | 2.7 µM | 0.062 µM | 1 µM | 0.074 µM |  |
| CCCC[C@H](NC(=O)[C@H](CC(C)C)NC(=O)OCc1ccccc1)C(O)c1c(-c2ccccc2)c1=O (stereo partly drawn) [95 (No. 281), 2-[(2S)-2-((S)-2-benzyloxycarbonylamino-4-methylvalerylamino]-1-hydroxyhexyl]-3-phenylcyclopropenone] | 3 µM | 1.27 µM | 11 µM | 13 µM |  |
| CCCC[C@H](NC(=O)[C@H](CC(C)C)NC(=O)OCc1ccccn1)C(O)c1c(-c2ccccc2)c1=O (stereo partly shown) [96 (No. 282)] | 5.7 µM | 4.6 µM | 28 µM |  | IC50 [4]: 7 µM |
| CCCC[C@H](NC(=O)[C@H](CC(C)C)NC(=O)OCC1CCCCC1)C(O)c1c(-c2ccc([Si](C)(C)C)o2)c1=O (stereo partly drawn) [114 (No. 376), 2-[(2S)-2-((S)-2-cyclohexylmethoxycarbonylamino-4-methylvalerylamino)-1-hydroxy-1-hexyl]-3-(5-trimethylsilyl-2-furil)cyclopropenone] |  |  |  | 0.68 µM | IC50 [1]: 5.6 µM; IC50 [2]: 0.58 µM; IC50 [3]: 2.5 µM |
| CCCC[C@H](NC(=O)[C@H](CC(C)C)NC(=O)OCC1CCCCC1)C(O)c1c(-c2ccc([Si](C)(C)C)s2)c1=O (stereo partly drawn) [115 (No. 387), 2-[(2S)-2-((S)-2-cyclohexylmethoxycarbonylamino-4-methylvalerylamino)-1-hydroxy-1-hexyl]-3-(5-trimethylsilyl-2-thienyl)cyclopropenone] |  |  |  | 0.48 µM | IC50 [1]: 11 µM; IC50 [2]: 0.27 µM; IC50 [3]: 1.5 µM |
| CC(C)CCNC(=O)[C@H](CC(C)C)NC(=O)[C@H]1O[C@@H]1C(=O)O [E-64-C] |  |  |  |  | degradation of microtubule-associated protein [6]: inhibits the degradation of microtubule-associated protein |
| CCOC(=O)[C@H]1O[C@@H]1C(=O)N[C@@H](CC(C)C)C(=O)NCCC(C)C [E-64-d] |  |  |  |  | life-prolonging effect [7]: life-prolonging effect; aggregation of platelet [8]: suppressed aggregation of platelet |
| CC(C)C[C@H](NC(=O)[C@H]1O[C@@H]1C(=O)O)C(=O)NCCCCNC(=N)N [E-64] |  |  |  |  | calcium concentration in blood [9]: decrease; hydroxyproline concentration in blood [9]: decrease; effect on cataract [10]: effective on cataract |
| NC(N)=NCCCCNC(=O)[C@H](Cc1ccccc1)NC(=O)[C@H]1O[C@@H]1C(=O)O [Estatin A] |  |  |  |  | calcium concentration in blood [9]: decrease; hydroxyproline concentration in blood [9]: decrease; production of IgE [11]: specifically inhibit the production of IgE; production of IgG [11]: without affecting on the production of IgG |
| CCOC(=O)[C@@H]1O[C@H]1C(=O)NC(CC(C)C)C(=O)N1CCN(Cc2ccc(OC)c(OC)c2OC)CC1.CCOC(=O)[C@@H]1O[C@H]1C(=O)NC(CC(C)C)C(=O)N1CCN(Cc2ccc(OC)c(OC)c2OC)CC1.O=S(=O)(O)O (stereo partly shown) [NCO-700] |  |  |  |  | effect on cardiac infarction [12]: effective on cardiac infarction |
| CC(=O)N[C@@H](CC(C)C)C(=O)N[C@@H](CC(C)C)C(=O)N[C@H](C=O)CCCNC(=N)N [leupetin] |  |  |  |  | axon protection [13]: can protect axon |
